Experimental findings from US10577363B2, “Substituted piperidine compounds” (EPIZYME, INC., priority 2014, dated 2020) are described below.

For experiment [1], the target named is T1, SMYD3 (Homo sapiens (Human), UniProt Q9H7B4). The experiment is described as follows: SMYD3 biochemical assay (SPA, 3H-SAM methylation of MEKK2 protein substrate). The following applies: average of n = 1 to n = 50; read-out: SMYD3 Biochem IC50. In a few lines: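 SPA methyltransferase format: tag-cleaved human SMYD3, insect-cell GST-MEKK2 protein substrate, 3H-SAM donor, 30 min RT enzyme–compound preincubation, 100 uM cold SAM quench.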
T1 sequence (Q9H7B4 whole entry): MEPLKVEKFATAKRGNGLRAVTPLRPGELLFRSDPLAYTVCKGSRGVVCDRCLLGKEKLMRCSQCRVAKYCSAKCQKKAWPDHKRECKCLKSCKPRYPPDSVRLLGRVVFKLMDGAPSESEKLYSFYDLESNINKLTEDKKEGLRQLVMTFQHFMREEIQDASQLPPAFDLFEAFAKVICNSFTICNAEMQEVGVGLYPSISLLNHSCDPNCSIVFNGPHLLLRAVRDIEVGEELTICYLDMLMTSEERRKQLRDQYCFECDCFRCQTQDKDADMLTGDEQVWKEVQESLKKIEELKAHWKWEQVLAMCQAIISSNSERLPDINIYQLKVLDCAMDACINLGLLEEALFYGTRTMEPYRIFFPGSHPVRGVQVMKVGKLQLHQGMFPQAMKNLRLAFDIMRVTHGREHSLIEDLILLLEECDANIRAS

Experiment [2] addresses T1, SMYD3. The experiment is described as follows: SMYD3 cell assay (Trimethyl-MEKK2 In-Cell Western in 293T/17 cells). In kind it is cell-based. To be noted: average of n = 1 to n = 50; read-out: SMYD3 Cell IC50. The essentials: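 In-Cell Western readout: methanol-fixed cells stained for trimethyl-MEKK2 and flag tag, ratio per well normalized to DMSO and background controls.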

One may read the IC50 as the midpoint of a concentration-inhibition curve. As for `CNC/C=C/S(=O)(=O)N1CCC(NC(=O)c2cc(C3CC3)on2)CC1` [compound 727, (E)-5-cyclopropyl-N-(1-((3-(methylamino)prop-1-en-1-yl)sulfonyl)piperidin-4-yl)isoxazole-3-carboxamide], the IC50 is 363 nM in experiment [1] and 1390 nM in experiment [2].

In the case of `CC(C)[C@@H]1CN(S(=O)(=O)N2CC[C@H](NC(=O)c3cc(C4CC4)on3)C[C@@H]2C)CCN1C` [compound 728, 5-cyclopropyl-N-((2S,4S)-1-(((R)-3-isopropyl-4-methylpiperazin-1-yl)sulfonyl)-2-methylpiperidin-4-yl)isoxazole-3-carboxamide], the figures for the IC50 in experiment [1] and in experiment [2] were 380 nM and 1370 nM, respectively.

On to `O=C(N[C@@H]1C[C@H]2CC[C@@H](C1)N2S(=O)(=O)C1CCCNC1)c1cc(C2CC2)on1` (stereo partly drawn) [compound 729, 5-cyclopropyl-N-((1R,3s,5S)-8-(piperidin-3-ylsulfonyl)-8-azabicyclo[3.2.1]octan-3-yl)isoxazole-3-carboxamide], for which the concentration for half-maximal inhibition (IC50) in experiment [1] amounted to 411 nM; in experiment [2] it was 2530 nM.

`Nc1cc(S(=O)(=O)N2[C@@H]3CCC[C@H]2C[C@@H](NC(=O)c2cc(C4CC4)on2)C3)ccn1` [compound 730, N-((1R,3r,5S)-9-((2-aminopyridin-4-yl)sulfonyl)-9-azabicyclo[3.3.1]nonan-3-yl)-5-cyclopropylisoxazole-3-carboxamide]: the values for the IC50 in experiment [1] and in experiment [2] were 413 nM and 1320 nM, respectively.

On to `C[C@H]1CN(S(=O)(=O)N2CCN(C)CC2)[C@@H](C)C[C@H]1NC(=O)c1cc(C2CC2)on1` [compound 731, 5-cyclopropyl-N-((2S,4R,5S)-2,5-dimethyl-1-((4-methylpiperazin-1-yl)sulfonyl)piperidin-4-yl)isoxazole-3-carboxamide], for which the IC50 in experiment [1] is 418 nM; in experiment [2], 1330 nM.

For `C[C@H]1CN(S(=O)(=O)CCN2CCCC2)[C@@H](C)C[C@H]1NC(=O)c1cc(C2CC2)on1` [compound 732, 5-cyclopropyl-N-((2S,4R,5S)-2,5-dimethyl-1-((2-(pyrrolidin-1-yl)ethyl)sulfonyl)piperidin-4-yl)isoxazole-3-carboxamide], the values for the IC50 in experiment [1] and in experiment [2] were 431 nM and 1460 nM, respectively.

Turning to `O=C(NC1C[C@H]2CCC[C@H](C1)N2S(=O)(=O)c1ccc(Cl)cn1)c1cc(C2CC2)on1` (stereo partly drawn) [compound 733, N-((1R,5R)-9-((5-chloropyridin-2-yl)sulfonyl)-9-azabicyclo[3.3.1]nonan-3-yl)-5-cyclopropylisoxazole-3-carboxamide], the concentration for half-maximal inhibition (IC50) in experiment [1] is 442 nM; in experiment [2], 1960 nM.

With `NCCCNc1ncccc1S(=O)(=O)N1[C@@H]2CCC[C@H]1C[C@@H](NC(=O)c1cc(C3CC3)on1)C2` [compound 734, N-((1R,3r,5S)-9-((2-((3-aminopropyl)amino)pyridin-3-yl)sulfonyl)-9-azabicyclo[3.3.1]nonan-3-yl)-5-cyclopropylisoxazole-3-carboxamide], the IC50 was 442 nM in experiment [1] and 4170 nM in experiment [2].

On to `C[C@H]1CN(S(=O)(=O)N2CC[C@H](NC(=O)c3cc(C4CC4)on3)C[C@@H]2C)CCN1C` [compound 735, 5-cyclopropyl-N-((2S,4S)-1-(((S)-3,4-dimethylpiperazin-1-yl)sulfonyl)-2-methylpiperidin-4-yl)isoxazole-3-carboxamide], for which the half-maximal inhibitory concentration (IC50) in experiment [1] was 446 nM; in experiment [2], 1360 nM.

With `C[C@H]1C[C@@H](NC(=O)c2cc(C3CC3)on2)CCN1S(=O)(=O)N1CCNC(Cc2ccccc2)C1` (stereo partly drawn) [compound 736, N-((2S,4S)-1-((3-benzylpiperazin-1-yl)sulfonyl)-2-methylpiperidin-4-yl)-5-cyclopropylisoxazole-3-carboxamide], the IC50 turned out to be 452 nM in experiment [1] and 2030 nM in experiment [2].

On to `C[C@H]1C[C@@H](NC(=O)c2cc(C3CC3)on2)CCN1S(=O)(=O)N1CCNCC1Cc1ccccc1` (stereo partly drawn) [compound 737, N-((2S,4S)-1-((2-benzylpiperazin-1-yl)sulfonyl)-2-methylpiperidin-4-yl)-5-cyclopropylisoxazole-3-carboxamide], for which the figures for the concentration for half-maximal inhibition (IC50) in experiment [1] and in experiment [2] were 469 nM and 6940 nM, respectively.

`C[C@H]1CN(S(=O)(=O)CC2CCN(CCN3CCOCC3)CC2)CC[C@H]1NC(=O)c1cc(C2CC2)on1` [compound 738, 5-cyclopropyl-N-((3S,4R)-3-methyl-1-(((1-(2-morpholinoethyl)piperidin-4-yl)methyl)sulfonyl)piperidin-4-yl)isoxazole-3-carboxamide]: the IC50 worked out at 476 nM in experiment [1] and 2820 nM in experiment [2].

As to `O=C(N[C@H]1C[C@H]2CC[C@@H](C1)N2S(=O)(=O)CCc1ccncc1)c1cc(C2CC2)on1` [compound 739, 5-cyclopropyl-N-((1R,3r,5S)-8-((2-(pyridin-4-yl)ethyl)sulfonyl)-8-azabicyclo[3.2.1]octan-3-yl)isoxazole-3-carboxamide], the IC50 in experiment [1] stood at 491 nM; in experiment [2] it was 2400 nM.

For `CN(CCN1CCOCC1)CCS(=O)(=O)N1[C@@H]2CC[C@H]1C[C@@H](NC(=O)c1cc(C3CC3)on1)C2` [compound 742, 5-cyclopropyl-N-((1R,3r,5S)-8-((2-(methyl(2-morpholinoethyl)amino)ethyl)sulfonyl)-8-azabicyclo[3.2.1]octan-3-yl)isoxazole-3-carboxamide], the IC50 was 513 nM in experiment [1] and 899 nM in experiment [2].

Consider `O=C(N[C@H]1C[C@H]2CC[C@@H](C1)N2S(=O)(=O)CCNCCN1CCOCC1)c1cc(C2CC2)on1` [compound 743, 5-cyclopropyl-N-((1R,3r,5S)-8-((2-((2-morpholinoethyl)amino)ethyl)sulfonyl)-8-azabicyclo[3.2.1]octan-3-yl)isoxazole-3-carboxamide], for which the results for the IC50 in experiment [1] and in experiment [2] were 514 nM and 1820 nM, respectively.

`O=C(N[C@@H]1CCN(S(=O)(=O)CC2CCNCC2)[C@H](Cc2ccccc2)C1)c1cc(C2CC2)on1` [compound 744, N-((2R,4R)-2-benzyl-1-((piperidin-4-ylmethyl)sulfonyl)piperidin-4-yl)-5-cyclopropylisoxazole-3-carboxamide]: the IC50 in experiment [1] was determined as 518 nM; in experiment [2], 2350 nM.

For the compound `O=C(N[C@H]1CCN(S(=O)(=O)CC2CCCN2)[C@@H](Cc2ccccc2)C1)c1cc(C2CC2)on1` (stereo partly drawn) [compound 745, N-((2S,4S)-2-benzyl-1-((pyrrolidin-2-ylmethyl)sulfonyl)piperidin-4-yl)-5-cyclopropylisoxazole-3-carboxamide], the results for the IC50 in experiment [1] and in experiment [2] were 533 nM and 2640 nM, respectively.

As for `C[C@@H]1CN(S(=O)(=O)CCN2CCCC2)[C@H](C)C[C@@H]1NC(=O)c1cc(C2CC2)on1` [compound 746, 5-cyclopropyl-N-((2R,4S,5R)-2,5-dimethyl-1-((2-(pyrrolidin-1-yl)ethyl)sulfonyl)piperidin-4-yl)isoxazole-3-carboxamide], the values for the IC50 in experiment [1] and in experiment [2] were 541 nM and 1660 nM, respectively.

For `C[C@@H]1C[C@H](NC(=O)c2cc(C3CC3)on2)CCN1C(=O)c1ccc2c(c1)ncn2C` [compound 747, 5-cyclopropyl-N-((2R,4R)-2-methyl-1-(1-methyl-1H-benzo[d]imidazole-5-carbonyl)piperidin-4-yl)isoxazole-3-carboxamide], the concentration for half-maximal inhibition (IC50) in experiment [1] came to 583 nM; in experiment [2], 2410 nM.

As to `CN(CCc1ccccc1)CCS(=O)(=O)N1[C@@H]2CC[C@H]1C[C@@H](NC(=O)c1cc(C3CC3)on1)C2` [compound 748, 5-cyclopropyl-N-((1R,3r,5S)-8-((2-(methyl(phenethyl)amino)ethyl)sulfonyl)-8-azabicyclo[3.2.1]octan-3-yl)isoxazole-3-carboxamide], the IC50 in experiment [1] was 584 nM; in experiment [2], 3180 nM.

In the case of `O=C(N[C@H]1C[C@H]2CC[C@@H](C1)N2S(=O)(=O)N1CCNC(Cc2ccccc2)C1)c1cc(C2CC2)on1` (stereo partly drawn) [compound 749, N-((1R,3r,5S)-8-((3-benzylpiperazin-1-yl)sulfonyl)-8-azabicyclo[3.2.1]octan-3-yl)-5-cyclopropylisoxazole-3-carboxamide], the half-maximal inhibitory concentration (IC50) in experiment [1] worked out at 590 nM; in experiment [2], 3560 nM.

Consider `COCCCN1CCC(CS(=O)(=O)N2CC[C@H](NC(=O)c3cc(C4CC4)on3)C[C@@H]2Cc2ccccc2)CC1` [compound 750, N-((2S,4S)-2-benzyl-1-(((1-(3-methoxypropyl)piperidin-4-yl)methyl)sulfonyl)piperidin-4-yl)-5-cyclopropylisoxazole-3-carboxamide], for which the IC50 in experiment [1] amounted to 625 nM; in experiment [2], 3470 nM.

`C[C@H]1C[C@@H](NC(=O)c2cc(C3CC3)on2)CCN1S(=O)(=O)N1CCN[C@H](c2ccccc2)C1` [compound 751, 5-cyclopropyl-N-((2S,4S)-2-methyl-1-(((R)-3-phenylpiperazin-1-yl)sulfonyl)piperidin-4-yl)isoxazole-3-carboxamide]: the figures for the IC50 in experiment [1] and in experiment [2] were 633 nM and 2890 nM, respectively.

With `O=C(N[C@@H]1CCN(S(=O)(=O)C2CCNC2)[C@H](Cc2ccccc2)C1)c1cc(C2CC2)on1` (stereo partly drawn) [compound 752, N-((2R,4R)-2-benzyl-1-(pyrrolidin-3-ylsulfonyl)piperidin-4-yl)-5-cyclopropylisoxazole-3-carboxamide], the IC50 was found to be 667 nM in experiment [1] and 2490 nM in experiment [2].

As for `O=C(N[C@@H]1C[C@H]2CCC[C@@H](C1)N2S(=O)(=O)c1cncc(F)c1)c1cc(C2CC2)on1` [compound 753, 5-cyclopropyl-N-((1R,3s,5S)-9-((5-fluoropyridin-3-yl)sulfonyl)-9-azabicyclo[3.3.1]nonan-3-yl)isoxazole-3-carboxamide], the IC50 in experiment [1] was 672 nM; in experiment [2] it was 2040 nM.
